# Measurements taken from patent US10703698B2, “Compounds which activate estrogen receptors and compositions and methods of using the same” (The Board of Trustees of the University of Illinois, priority 2016, dated 2020).
# “Also recorded” adds a separate entry of the source.
# Key:
# ERα-SRC3 interaction = target: T1, ERα-SRC3 interaction (Homo sapiens, UniProt P03372); assay: co-immunoprecipitation of ERα and SRC3 in MCF-7 cells; type: cell-based; conditions: 10 nM E2 or 1 μM PaPE-1, 1 h
# T1 construct: endogenous in cells; host or cells: MCF-7
# T1 sequence (P03372 1-595): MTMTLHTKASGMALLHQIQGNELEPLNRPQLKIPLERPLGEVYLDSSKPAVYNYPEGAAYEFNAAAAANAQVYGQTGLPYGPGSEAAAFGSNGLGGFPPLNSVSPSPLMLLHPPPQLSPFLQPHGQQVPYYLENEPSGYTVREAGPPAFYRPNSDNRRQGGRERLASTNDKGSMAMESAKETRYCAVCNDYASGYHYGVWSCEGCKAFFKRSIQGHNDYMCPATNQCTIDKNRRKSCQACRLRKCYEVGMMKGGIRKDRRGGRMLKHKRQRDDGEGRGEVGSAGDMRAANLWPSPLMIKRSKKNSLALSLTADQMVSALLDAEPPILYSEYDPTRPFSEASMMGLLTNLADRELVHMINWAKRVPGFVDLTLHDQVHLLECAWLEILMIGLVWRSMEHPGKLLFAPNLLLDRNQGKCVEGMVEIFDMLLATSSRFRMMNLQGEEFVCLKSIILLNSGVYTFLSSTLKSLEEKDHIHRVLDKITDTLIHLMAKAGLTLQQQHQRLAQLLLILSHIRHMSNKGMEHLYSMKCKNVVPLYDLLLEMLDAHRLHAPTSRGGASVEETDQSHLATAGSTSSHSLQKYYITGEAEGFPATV
# Text: FIG. 10. Estrogen receptor and coactivator binding and interaction assays with ligands and ligand dissociation rates. […] After ligand treatment, cell lysates were immunoprecipitated with antibody to SRC3 or control IgG, and immunoprecipitates were separated on SDS PAGE gels and blotted for ERα using anti-ERα antibody. […] For details, see methods below.
# Western blot analysis used specific antibodies for ERα (HC-20, Santa Cruz); ERK2 (D-2, Santa Cruz); and pS^6, pS6K, pmTOR, pRAPTOR, pRICTOR, pMAPK (Cell Signaling). Coimmunoprecipitation assays used antibodies for SRC3 (Santa Cruz, C-20) and ERα (Santa Cruz, F10).
# [1] = test system: ovariectomized C57BL/6 mice; assay: stroke model, transient middle cerebral artery occlusion (tMCAo)
# [2] = test system: ovariectomized C57BL/6 mice; conditions: mouse, in vivo
# ERα and RAPTOR = target: T2, ERα and RAPTOR (Homo sapiens, UniProt P03372); assay: proximity ligation assay in MCF-7 cells; type: cell-based; conditions: 10 nM E2 or 1 μM PaPE-1, 15 min
# T2 construct: endogenous in cells; host or cells: MCF-7
# T2 sequence (P03372 1-595): T1 sequence (P03372 1-595)
# Method: Next day, the proximity ligation assay (PLA) was performed using the Duolink In Situ kit (Olink Bioscience) according to the manufacturer's instructions, as described in Zhao et. al., Endocrinology, 154, 1349-1360, 2013. Briefly, overnight incubation with primary antibodies was followed by hybridization with two PLA probes at 37° C. for 1 h, and then by ligation for 15 min and amplification for 90 min at 37° C. A coverslip was mounted on each slide and image acquisition and analysis conducted. Samples were imaged using a 63×/1.4 Oil DIC M27 objective in a Zeiss LSM 700 or 710 laser scanning confocal microscope. Images were obtained in a sequential manner using a 488 Ar (10 mW) laser line for PLA signal. The individual channels for DAPI and PLA signal were obtained using a sequential scanning mode to prevent bleed-through of the excitation signal. Laser power, gain and offset were kept constant across the samples and scanned in a high resolution format of 512×512 or 1024×1024 pixels with 2/4 frames averaging. Further quantification of the images used Fiji software (http://fiji.sc/wiki/index.php/Fiji). Briefly, images were converted to 8 bit for segmentation for each channel, and images were background subtracted using a rolling-ball method, with a pixel size of 100 and segmented using the DAPI channel.
# MCF-7 cells = assay: MCF-7 cell proliferation, WST-1 assay; type: cell-based, human; conditions: 6 days
# Method: Cells were seeded at 1000 cells/well in 96-well plates.
# LRRC54 gene = assay: LRRC54 (non-genomic gene) mRNA expression, qPCR; conditions: for LRRC54 (non-genomic gene) mRNA expression, in words: MCF-7 cells, 1 μM PaPE or 10 nM E2 for 4 h where stated, versus vehicle, E2 or compound 2
# eNOS = eNOS activation in primary endothelial cells (14C-L-arginine to 14C-L-citrulline); type: cell-based, bovine; conditions: 15 min; 10 nM ligand (FIG. 9E)
# [3] = test system: ERα knock-out (ERKO) C57BL/6 mice; assay: effects in ERα knock-out (ERKO) mice; type: in vivo; conditions: 3 weeks; listed as PaPE-1
# Method: FIG. 13. Effects of PaPE-1 require ERα. […] Animals were on normal chow diet. Change in body weight was monitored. (B) Uterus weights of animals from (A) at the end of 3 weeks of vehicle (Veh) or ligand treatment. (C) Triglyceride levels in the blood of animals from (A) after 3 weeks of ligand exposure.
# Studies used wild type and ERα knockout mice in C57BL/6 background. All experiments involving animals were conducted in accordance with National Institutes of Health standards for the use and care of animals, with protocols approved by the University of Illinois at Urbana-Champaign and the University of Texas Southwestern Medical Center. Wild-type C57BL/6 mice were purchased from Jackson Laboratories/National Cancer Institute. ERα knockout mice with complete excision of ERα and wild type littermates were obtained from Taconic and were used as described previously in Dupont et al., Development, 127, 4277-4291, […], and Hewitt et al. FASEB J., 24, 4660-4667, 2010.
# [4] = pharmacokinetics after SC injection in ovariectomized mice; type: in vivo; conditions: female, C57BL/6, mouse, serum, 100 ug, subcutaneous injection
# Method: For short-term studies, ovariectomized C57BL/6 mice were injected SC with 100 μg of PaPE-1 in 100 μl DMSO. Three mice were sacrificed at each time point, and 400 μl of blood was obtained from the abdominal aorta. Samples were centrifuged at 2000 g for 10 min, and serum was collected. A 50 μl portion of each sample was submitted to the Metabolomics Center at the University of Illinois for analysis. For longer-term studies, ovariectomized C57BL/6 mice were implanted SC with a pellet fabricated with 8 mg PaPE-1 and 12 mg cholesterol. Blood samples (30 μl) were collected by tail snipping every week until the third week of treatment. Samples were centrifuged at 2000 g for 10 min and serum was collected. Serum (10 μl) was mixed with 40 μl of PBS and submitted to the Metabolomics Center for analysis. For analysis, a mass standard of PaPE-1 (labeled with three deuterium atoms) was added to each sample before analysis by liquid chromatography-mass spectrometry using the 5500 QTrap with Agilent 1200 HPLC.
structure (smiles),measurement,setting,value
"Cc1cc(-c2ccc3c(c2)CCC3O)cc(C)c1O (racemic) [Compound 2, 5-(4-hydroxy-3,5-dimethylphenyl)-2,3-dihydro-1H-inden-1-ol]",coimmunoprecipitation of ERα with SRC3,ERα-SRC3 interaction,no coimmunoprecipitated complexes were observed
same,severity of CNS injury on MRI,[1]; 3 and 7 days,decreased compared with control treatment
same,infarct volumes,"[1]; 3d and 7d post-tMCAo, compared with vehicle",significantly reduced infarct volumes
same,degree of swelling associated with the injury,[1]; 3 days post-stroke,attenuated
same,reduction of leukocytes infiltrated in the brain,[1]; 3 days post-stroke,93%
same,"rotorod functional recovery, of baseline",[1]; 6d post-tMCAo,85%
same,"rotorod functional recovery, of baseline",[1]; 13d post-tMCAo,82%
same,"rotorod function post-stroke, in words","[1]; mouse, in vivo",improved function post-stroke
same,uterine wet weight,[2],no effect
same,interaction of ERα with RAPTOR,ERα and RAPTOR,to a greater extent; also recorded: induces interaction between ERα and Raptor
same,proliferation of MCF-7 cells,MCF-7 cells,did not stimulate proliferation
same,"LRRC54 activation, fold higher level than E2",LRRC54 gene; FIG. 14,1.9 fold
same,"LRRC54 (non-genomic gene) mRNA expression, in words",LRRC54 gene,equivalent activities
same,"LRRC54 (non-genomic gene) mRNA expression, in words",LRRC54 gene; listed as PaPE-1,LRRC54 stimulation
same,eNOS / NOS activity,eNOS,comparable response
same,ability to diminish body weight gain after ovariectomy in ERKO mice,[3],lost in the ERKO mice; also recorded: require ERα
same,half-life,[4],~1 h
